According to ChEMBL document CHEMBL4020777, “Cytotoxic and apoptosis-inducing activities against human lung cancer cell lines of cassaine diterpenoids from the bark of Erythrophleum fordii” (Bioorg Med Chem Lett, 2017):

How the values were obtained:
A549 [1] = test: Cytotoxicity against human A549 cells by MTT assay; format: functional, cell-based
NCI-H1299 [2] = test: Cytotoxicity against human NCI-H1299 cells by MTT assay; format: functional, cell-based
NCI-H1975 [3] = test: Cytotoxicity against human NCI-H1975 cells by MTT assay; format: functional, cell-based
NCI-H1975 [4] = test: Induction of apoptosis in human NCI-H1975 cells assessed as late apoptotic cells at 0.3 uM after 48 hrs by Annexin-V-FITC/propidium iodide staining based flow cytometric method (reference value: 2.92 to 4.29%); format: functional
NCI-H1299 [5] = test: Induction of apoptosis in human NCI-H1299 cells assessed as late apoptotic cells at 0.1 uM after 48 hrs by Annexin-V-FITC/propidium iodide staining based flow cytometric method (reference value: 2.69%); format: functional
NCI-H1299 [6] = test: Induction of apoptosis in human NCI-H1299 cells assessed as early apoptotic cells at 0.1 uM after 48 hrs by Annexin-V-FITC/propidium iodide staining based flow cytometric method (reference value: 1.91%); format: functional
NCI-H1975 [7] = test: Induction of apoptosis in human NCI-H1975 cells assessed as early apoptotic cells at 0.3 uM after 48 hrs by Annexin-V-FITC/propidium iodide staining based flow cytometric method (reference value: 2.5 to 3.56%); format: functional
A549 [8] = test: Induction of apoptosis in human A549 cells assessed as late apoptotic cells at 0.1 uM after 48 hrs by Annexin-V-FITC/propidium iodide staining based flow cytometric method (reference value: 3.4 to 4.76%); format: functional
NCI-H1299 [9] = test: Induction of apoptosis in human NCI-H1299 cells assessed as late apoptotic cells at 0.3 uM after 48 hrs by Annexin-V-FITC/propidium iodide staining based flow cytometric method (reference value: 2.69%); format: functional
NCI-H1299 [10] = test: Induction of apoptosis in human NCI-H1299 cells after 48 hrs by Annexin-V-FITC/propidium iodide staining based flow cytometric method; format: functional, cell-based
NCI-H1975 [11] = test: Induction of apoptosis in human NCI-H1975 cells after 48 hrs by Annexin-V-FITC/propidium iodide staining based flow cytometric method; format: functional, cell-based
NCI-H1299 [12] = test: Induction of apoptosis in human NCI-H1299 cells assessed as early apoptotic cells at 0.3 uM after 48 hrs by Annexin-V-FITC/propidium iodide staining based flow cytometric method (reference value: 1.91%); format: functional
NCI-H1975 [13] = test: Induction of apoptosis in human NCI-H1975 cells assessed as late apoptotic cells at 0.1 uM after 48 hrs by Annexin-V-FITC/propidium iodide staining based flow cytometric method (reference value: 2.92 to 4.29%); format: functional
A549 [14] = test: Induction of apoptosis in human A549 cells after 48 hrs by Annexin-V-FITC/propidium iodide staining based flow cytometric method; format: functional, cell-based
A549 [15] = test: Induction of apoptosis in human A549 cells assessed as early apoptotic cells at 0.3 uM after 48 hrs by Annexin-V-FITC/propidium iodide staining based flow cytometric method (reference value: 1.04 to 2.73%); format: functional
A549 [16] = test: Induction of apoptosis in human A549 cells assessed as early apoptotic cells at 0.1 uM after 48 hrs by Annexin-V-FITC/propidium iodide staining based flow cytometric method (reference value: 1.04 to 2.73%); format: functional
A549 [17] = test: Induction of apoptosis in human A549 cells assessed as late apoptotic cells at 0.3 uM after 48 hrs by Annexin-V-FITC/propidium iodide staining based flow cytometric method (reference value: 3.4 to 4.76%); format: functional
NCI-H1975 [18] = test: Induction of apoptosis in human NCI-H1975 cells assessed as early apoptotic cells at 0.1 uM after 48 hrs by Annexin-V-FITC/propidium iodide staining based flow cytometric method (reference value: 2.5 to 3.56%); format: functional
NCI-H1975 [19] = test: Induction of apoptosis in human NCI-H1975 cells assessed as late apoptotic cells at 3 uM after 48 hrs by Annexin-V-FITC/propidium iodide staining based flow cytometric method (reference value: 2.92 to 4.29%); format: functional
A549 [20] = test: Induction of apoptosis in human A549 cells assessed as early apoptotic cells at 3 uM after 48 hrs by Annexin-V-FITC/propidium iodide staining based flow cytometric method (reference value: 1.04 to 2.73%); format: functional
A549 [21] = test: Induction of apoptosis in human A549 cells assessed as late apoptotic cells at 3 uM after 48 hrs by Annexin-V-FITC/propidium iodide staining based flow cytometric method (reference value: 3.4 to 4.76%); format: functional
NCI-H1975 [22] = test: Induction of apoptosis in human NCI-H1975 cells assessed as early apoptotic cells at 3 uM after 48 hrs by Annexin-V-FITC/propidium iodide staining based flow cytometric method (reference value: 2.5 to 3.56%); format: functional
NCI-H1299 [23] = test: Induction of apoptosis in human NCI-H1299 cells assessed as early apoptotic cells at 3 uM after 48 hrs by Annexin-V-FITC/propidium iodide staining based flow cytometric method (reference value: 1.91%); format: functional
NCI-H1299 [24] = test: Induction of apoptosis in human NCI-H1299 cells assessed as late apoptotic cells at 3 uM after 48 hrs by Annexin-V-FITC/propidium iodide staining based flow cytometric method (reference value: 2.69%); format: functional

SMILES | IC50 (A549 [1]) | IC50 (NCI-H1299 [2]) | IC50 (NCI-H1975 [3]) | other results
COC(=O)/C=C1\CC[C@H]2[C@@H](C(=O)C[C@@H]3[C@]2(C)CC[C@H](OC(C)=O)[C@]3(C)C(=O)OC)[C@H]1C | > 10 µM | > 10 µM | > 10 µM | –
COC(=O)/C=C1\CC[C@H]2[C@@H]([C@@H](O)C(=O)[C@@H]3[C@]2(C)CCC[C@]3(C)C(=O)OC)[C@H]1C | > 10 µM | > 10 µM | > 10 µM | –
C/C=C(\C)C(=O)O[C@H]1CC[C@@]2(C)[C@@H](C(=O)[C@H](O)[C@H]3[C@@H](C)/C(=C/C(=O)OCCNC)CC[C@@H]32)[C@@]1(C)C(=O)OC | 1.4 µM | 1.2 µM | 1.1 µM | –
CC[C@@]1(O)C(=O)OCc2c1cc1n(c2=O)Cc2cc3ccccc3nc2-1 [CAMPTOTHECIN] | 0.7 µM | 0.8 µM | 1.2 µM | Activity (NCI-H1975 [4]): 31.47%; Activity (NCI-H1299 [5]): 5.22%; Activity (NCI-H1299 [6]): 13.04%; Activity (NCI-H1975 [7]): 7.9%; Activity (A549 [8]): 10.25%; Activity (NCI-H1299 [9]): 9.44%; Activity (NCI-H1299 [10]): Dose-dependent effect; Activity (NCI-H1975 [11]): Dose-dependent effect; Activity (NCI-H1299 [12]): 13.16%; Activity (NCI-H1975 [13]): 6.73%; Activity (A549 [14]): Dose-dependent effect; Activity (A549 [15]): 20.33%; Activity (A549 [16]): 14.17%; Activity (A549 [17]): 14.14%; Activity (NCI-H1975 [18]): 5.54%
COC(=O)[C@@]1(C)CCC[C@@]2(C)[C@H]1C[C@H](O)[C@H]1[C@@H](C)/C(=C/C(=O)OCCN(C)C)CC[C@@H]12 | 3.1 µM | 2.4 µM | 2.6 µM | –
CNCCOC(=O)/C=C1\CC[C@H]2[C@@H]([C@@H](O)C(=O)[C@@H]3[C@]2(C)CCC[C@]3(C)C(=O)OC)[C@H]1C | 0.9 µM | 1.2 µM | 1 µM | –
COC(=O)[C@@]1(C)CCC[C@@]2(C)[C@H]1C(=O)[C@H](O)[C@H]1[C@@H](C)/C(=C/C(=O)OCCN(C)C)CC[C@@H]12 | > 10 µM | > 10 µM | > 10 µM | –
C/C=C(\C)C(=O)O[C@H]1CC[C@@]2(C)[C@@H]([C@@H](O)C(=O)[C@H]3[C@@H](C)/C(=C/C(=O)OC)CC[C@@H]32)[C@@]1(C)C(=O)OC | > 10 µM | > 10 µM | > 10 µM | –
COC(=O)[C@@]1(C)CCC[C@@]2(C)[C@H]1CC(=O)[C@H]1[C@@H](C)/C(=C/C(=O)OCCN(C)C)CC[C@@H]12 | 3.4 µM | 1.9 µM | 2.1 µM | –
COC(=O)/C=C1\CC[C@H]2[C@@H](C(=O)[C@H](O)[C@@H]3[C@]2(C)CCC[C@]3(C)C(=O)OC)[C@H]1C | > 10 µM | > 10 µM | > 10 µM | –
COC(=O)[C@@]1(C)CCC[C@@]2(C)[C@H]1[C@@H](O)C(=O)[C@H]1[C@@H](C)/C(=C/C(=O)OCCN(C)C)CC[C@@H]12 | 4.8 µM | 3.8 µM | 5.9 µM | –
C/C=C(\C)C(=O)O[C@H]1CC[C@@]2(C)[C@@H](CC(=O)[C@H]3[C@@H](C)/C(=C/C(=O)OCCNC)CC[C@@H]32)[C@@]1(C)C(=O)OC | 0.5 µM | 0.9 µM | 0.4 µM | Activity (NCI-H1975 [19]): 7.56%; Activity (NCI-H1975 [4]): 3.02%; Activity (NCI-H1975 [7]): 2.14%; Activity (A549 [20]): 7.27%; Activity (NCI-H1299 [9]): 3.24%; Activity (NCI-H1299 [10]): Dose-dependent effect; Activity (A549 [21]): 12.24%; Activity (NCI-H1975 [11]): Dose-dependent effect; Activity (NCI-H1975 [22]): 5.2%; Activity (NCI-H1299 [12]): 4.52%; Activity (NCI-H1299 [23]): 16.48%; Activity (NCI-H1299 [24]): 8.14%; Activity (A549 [14]): Dose-dependent effect; Activity (A549 [15]): 1.87%; Activity (A549 [17]): 3.96%
CNCCOC(=O)/C=C1\CC[C@H]2[C@@H](C(=O)[C@H](O)[C@@H]3[C@]2(C)CCC[C@]3(C)C(=O)OC)[C@H]1C | 2.1 µM | 1.5 µM | 3.3 µM | –
COC(=O)CC1=CC[C@H]2[C@@H](C(=O)[C@H](O)[C@@H]3[C@]2(C)CCC[C@]3(C)C(=O)OC)[C@H]1C | > 10 µM | > 10 µM | > 10 µM | –
